Results reported in ChEMBL document CHEMBL1201862, “PubChem BioAssay data set” (2004).
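How tested: cells in 96-well plates exposed to compound for 48 hours at five concentrations. At the GI50, growth is halved.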 Active and inactive are the calls of the source. Rule as the data show it: active = GI50 up to about 1.1 µM and inactive = higher.

Assays:
Experiment in all cases: inhibition of tumour cell growth, NCI panel, 48 h
[1] = test system: A498
[2] = test system: A549
[3] = test system: ACHN
[4] = test system: CAKI-1
[5] = test system: CCRF-CEM
[6] = test system: HCC 2998
[7] = test system: Hs-578T
[8] = test system: K562
[9] = test system: LOX IMVI
[10] = test system: MCF7
[11] = test system: MDA-MB-231
[12] = test system: MDA-MB-435
[13] = test system: RPMI-8226
[14] = test system: SF-268
[15] = test system: SK-MEL-28
[16] = test system: SNB-75
[17] = test system: T47D
[18] = test system: TK-10
[19] = test system: UACC-257
[20] = test system: NCI-H226

SMILES | GI50 [1] | GI50 [2] | GI50 [3] | GI50 [4] | GI50 [5] | GI50 [6] | GI50 [7] | GI50 [8] | GI50 [9] | GI50 [10] | GI50 [11] | GI50 [12] | GI50 [13] | GI50 [14] | GI50 [15] | GI50 [16] | GI50 [17] | GI50 [18] | GI50 [19] | GI50 [20]
Oc1ccnc(SCc2ccc(Cl)cc2)n1 | > 100 µM (inactive) | > 100 µM (inactive) | > 100 µM (inactive) | > 100 µM (inactive) | > 100 µM (inactive) | 13.4 µM (inactive) | > 100 µM (inactive) | > 100 µM (inactive) | > 100 µM (inactive) | > 100 µM (inactive) | > 100 µM (inactive) | > 100 µM (inactive) | 56.1 µM (inactive) | > 100 µM (inactive) | > 100 µM (inactive) | > 100 µM (inactive) | > 100 µM (inactive) | > 100 µM (inactive) | > 100 µM (inactive) | –
O=C(O)CSCCc1ccccc1 | > 100 µM (inactive) | > 100 µM (inactive) | > 100 µM (inactive) | > 100 µM (inactive) | – | – | > 100 µM (inactive) | > 100 µM (inactive) | > 100 µM (inactive) | > 100 µM (inactive) | > 100 µM (inactive) | > 100 µM (inactive) | > 100 µM (inactive) | > 100 µM (inactive) | > 100 µM (inactive) | > 100 µM (inactive) | > 100 µM (inactive) | > 100 µM (inactive) | > 100 µM (inactive) | > 100 µM (inactive)
COc1ccc2nc(N/N=C/c3ccc(C)s3)cc(C)c2c1 | – | > 100 µM (inactive) | 17.7 µM (inactive) | 23 µM (inactive) | 28.1 µM (inactive) | 16 µM (inactive) | 22.1 µM (inactive) | 14 µM (inactive) | 16.3 µM (inactive) | 18 µM (inactive) | 21.5 µM (inactive) | 19 µM (inactive) | 11.2 µM (inactive) | 20.1 µM (inactive) | 26.5 µM (inactive) | 24.3 µM (inactive) | 17.1 µM (inactive) | 21.6 µM (inactive) | 17.1 µM (inactive) | 14.8 µM (inactive)
Cc1c(CN2CCOCC2)c(CN2CCOCC2)c(C)n1-c1ccc(Cl)cn1 | > 100 µM (inactive) | > 100 µM (inactive) | > 100 µM (inactive) | > 100 µM (inactive) | > 100 µM (inactive) | > 100 µM (inactive) | > 100 µM (inactive) | > 100 µM (inactive) | – | > 100 µM (inactive) | > 100 µM (inactive) | > 100 µM (inactive) | > 100 µM (inactive) | > 100 µM (inactive) | > 100 µM (inactive) | > 100 µM (inactive) | > 100 µM (inactive) | > 100 µM (inactive) | > 100 µM (inactive) | > 100 µM (inactive)
Cc1ccc(O)c(C2=CC3=NNC(=O)C3C(c3cccc(Cl)c3)C2)c1 (centres undefined) | 61.9 µM (inactive) | 52.5 µM (inactive) | 30.5 µM (inactive) | 32.5 µM (inactive) | 31.6 µM (inactive) | 20.7 µM (inactive) | 36.3 µM (inactive) | 37.1 µM (inactive) | 23 µM (inactive) | 17.7 µM (inactive) | 34.9 µM (inactive) | 32.7 µM (inactive) | 24.4 µM (inactive) | 30.5 µM (inactive) | 28.1 µM (inactive) | 18.5 µM (inactive) | 28.1 µM (inactive) | 28.1 µM (inactive) | 64.3 µM (inactive) | –
Cc1ccc(-c2[nH]c(=O)n(C3OC(CO)C(O)C(O)C3O)c(=O)c2C#N)cc1 (centres undefined) | > 100 µM (inactive) | > 100 µM (inactive) | > 100 µM (inactive) | > 100 µM (inactive) | > 100 µM (inactive) | > 100 µM (inactive) | > 100 µM (inactive) | > 100 µM (inactive) | – | > 100 µM (inactive) | > 100 µM (inactive) | > 100 µM (inactive) | > 100 µM (inactive) | > 100 µM (inactive) | > 100 µM (inactive) | > 100 µM (inactive) | > 100 µM (inactive) | > 100 µM (inactive) | > 100 µM (inactive) | > 100 µM (inactive)
C[C@]12[C@@H]3CC[C@H]1[C@@H](O)C(=O)N2CC3 | > 100 µM (inactive) | > 100 µM (inactive) | > 100 µM (inactive) | > 100 µM (inactive) | > 100 µM (inactive) | > 100 µM (inactive) | > 100 µM (inactive) | > 100 µM (inactive) | > 100 µM (inactive) | > 100 µM (inactive) | > 100 µM (inactive) | > 100 µM (inactive) | > 100 µM (inactive) | > 100 µM (inactive) | > 100 µM (inactive) | > 100 µM (inactive) | > 100 µM (inactive) | > 100 µM (inactive) | > 100 µM (inactive) | –
COc1ccc(/C=N\N2CC(=O)N3C4C=CC(CC4)N3C2=O)cc1 (centres undefined) | > 100 µM (inactive) | > 100 µM (inactive) | > 100 µM (inactive) | > 100 µM (inactive) | > 100 µM (inactive) | – | 46.3 µM (inactive) | > 100 µM (inactive) | > 100 µM (inactive) | > 100 µM (inactive) | > 100 µM (inactive) | > 100 µM (inactive) | > 100 µM (inactive) | 88.7 µM (inactive) | > 100 µM (inactive) | 22.2 µM (inactive) | 85.7 µM (inactive) | > 100 µM (inactive) | > 100 µM (inactive) | > 100 µM (inactive)
O=c1oc2ccc([N+](=O)[O-])cc2c(Nc2ccc3c(c2)S(=O)(=O)c2ccccc2O3)c1[N+](=O)[O-] | – | > 100 µM (inactive) | > 100 µM (inactive) | > 100 µM (inactive) | 38.3 µM (inactive) | 26.5 µM (inactive) | 72.1 µM (inactive) | 33 µM (inactive) | 78.2 µM (inactive) | > 100 µM (inactive) | 49.7 µM (inactive) | > 100 µM (inactive) | 39 µM (inactive) | 88.5 µM (inactive) | 46.3 µM (inactive) | 73.6 µM (inactive) | > 100 µM (inactive) | > 100 µM (inactive) | > 100 µM (inactive) | 35.9 µM (inactive)
FC(F)(Sc1nc2ccccc2[nH]1)c1nc2ccccc2o1 | > 100 µM (inactive) | > 100 µM (inactive) | > 100 µM (inactive) | > 100 µM (inactive) | > 100 µM (inactive) | > 100 µM (inactive) | > 100 µM (inactive) | > 100 µM (inactive) | – | > 100 µM (inactive) | > 100 µM (inactive) | > 100 µM (inactive) | > 100 µM (inactive) | > 100 µM (inactive) | > 100 µM (inactive) | > 100 µM (inactive) | > 100 µM (inactive) | > 100 µM (inactive) | > 100 µM (inactive) | > 100 µM (inactive)
Sc1ncc(-c2cncc(-c3cnc(S)nc3)n2)cn1 | 52.2 µM (inactive) | > 100 µM (inactive) | > 100 µM (inactive) | > 100 µM (inactive) | > 100 µM (inactive) | > 100 µM (inactive) | > 100 µM (inactive) | > 100 µM (inactive) | – | > 100 µM (inactive) | > 100 µM (inactive) | > 100 µM (inactive) | > 100 µM (inactive) | > 100 µM (inactive) | > 100 µM (inactive) | > 100 µM (inactive) | > 100 µM (inactive) | > 100 µM (inactive) | > 100 µM (inactive) | > 100 µM (inactive)
Nc1ccc(SC23CC4CC(CC(C4)C2)C3)cc1 | > 100 µM (inactive) | > 100 µM (inactive) | > 100 µM (inactive) | > 100 µM (inactive) | > 100 µM (inactive) | > 100 µM (inactive) | > 100 µM (inactive) | > 100 µM (inactive) | > 100 µM (inactive) | 61.8 µM (inactive) | > 100 µM (inactive) | > 100 µM (inactive) | > 100 µM (inactive) | 54.5 µM (inactive) | > 100 µM (inactive) | – | > 100 µM (inactive) | > 100 µM (inactive) | > 100 µM (inactive) | < 0.01 µM (active)
C/C(=N\NC(=O)c1ccc(Cl)cc1)c1nc2cccnc2[nH]1 | 43.8 µM (inactive) | 30.2 µM (inactive) | 15.7 µM (inactive) | 28.8 µM (inactive) | 10.4 µM (inactive) | > 100 µM (inactive) | 27.3 µM (inactive) | 42.6 µM (inactive) | 12.2 µM (inactive) | 30.2 µM (inactive) | 36.8 µM (inactive) | 25.2 µM (inactive) | 27 µM (inactive) | 17.1 µM (inactive) | 27 µM (inactive) | 3.26 µM (inactive) | 22.8 µM (inactive) | 15.2 µM (inactive) | 20 µM (inactive) | –
Cn1c2ccccc2c(=O)c2cccc(C(=O)NC(CS)C(=O)O)c21 (centres undefined) | > 100 µM (inactive) | > 100 µM (inactive) | > 100 µM (inactive) | 32.8 µM (inactive) | – | > 100 µM (inactive) | > 100 µM (inactive) | 52.1 µM (inactive) | 53.6 µM (inactive) | 40.9 µM (inactive) | 60.8 µM (inactive) | > 100 µM (inactive) | 26.5 µM (inactive) | 93.5 µM (inactive) | > 100 µM (inactive) | 72.4 µM (inactive) | > 100 µM (inactive) | > 100 µM (inactive) | > 100 µM (inactive) | 40.1 µM (inactive)
COC1Cc2c(C)c(OC(C)=O)c3cccnc3c2O1 (centres undefined) | > 100 µM (inactive) | 17.3 µM (inactive) | 7.11 µM (inactive) | > 100 µM (inactive) | 10.7 µM (inactive) | > 100 µM (inactive) | 30.3 µM (inactive) | 22.2 µM (inactive) | – | 18.9 µM (inactive) | > 100 µM (inactive) | 17.6 µM (inactive) | 28.6 µM (inactive) | 16 µM (inactive) | 24.7 µM (inactive) | 17.4 µM (inactive) | 24.1 µM (inactive) | > 100 µM (inactive) | 16 µM (inactive) | 39 µM (inactive)
